Results: patent publication US20250134874A1, “PHARMACEUTICAL FORMULATIONS COMPRISING 3-({[(4R)-7-{METHYL[4-(PROPAN-2-YL)PHENYL]AMINO}-3,4-DIHYDRO-2H-1-BENZOPYRAN-4-YL]METHYL}AMINO)PYRIDINE-4-CARBOXYLIC ACID” (TACHYON THERAPEUTICS, INC., priority 2021, published 2025)
pEC50, pIC50: −log10 of the molar value.

Tested on: 301 cancer cell lines from different tumor types (OncoPanel; HD Biosciences)
Assay: 2D cell viability inhibition assay (CellTiter-Glo) in cancer cell line panel
Assay type: cell-based
Set-up: key to AUC: AUC as fraction of the no-inhibition area (dose range × 0–100 % of control)
Conditions: for Emax: in %
Experimental: In a larger screening study, compound 1 was evaluated across a broad cancer cell line panel (OncoPanel; HD Biosciences) composed of 301 cancer cell lines from different tumor types.
2D cell viability inhibition assays were performed in multiwell plates seeded with cells from the panel. After seeding, the plates were cultured overnight in a humidified incubator at 37° C. to promote adherence. Assays were initiated in individual wells by adding either DMSO as a vehicle control, growth media as a blank, or serially diluted compound 1 (10 μM to 0.0005 μM with 1:3 serial dilution). Cultures were incubated for 168 hours after which the number of viable cells in each test well was assessed using the CellTiter-Glo® Luminescent Cell Viability Assay. Luminescence readouts were performed using an EnVision® Multilabel Reader and the compound 1 readouts were normalized to the DMSO control readouts, expressed as a percent of the control. Outliers were flagged out by visual inspection. Percent of control was plotted against the corresponding compound 1 concentration and the absolute IC50 value was determined using four-parameter logistic non-linear regression as the concentration where inhibition was 50% of the control. For maximum inhibition <50%, the absolute IC50 was reported as >10. In addition to EC50 and IC50, AUC was determined and was normalized to the area corresponding to theoretical no-inhibition (the rectangular area defined by the compound dose range and 0 to 100 in y). Emax was recorded as the minimum in y with the compound dose range. For those cell lines where Emax>40, EC50 was manually set to 10 μM. A hierarchical clustering algorithm based on Euclidean distance between the standardized input values and “Ward.D” method as implemented in R hclust function was used to visualize the compound 1 cellular potency data. The sensitive/moderate/resistant calls for each cell line was determined by visually inspecting the resulting clustering dendrogram. All the analyses were done in R Core Team.

CC(C)c1ccc(N(C)c2ccc3c(c2)OCC[C@H]3CNc2cnccc2C(=O)O)cc1 [Compound 1, 3-({[(4R)-7-{methyl[4-(propan-2-yl)phenyl]amino}-3,4-dihydro-2H-1-benzopyran-4-yl]methyl}amino)pyridine-4-carboxylic acid]
AUC (143B cell line): 0.3582 | Emax (143B cell line): 2.196 | AUC (647V cell line): 0.3912 | Emax (647V cell line): 10.18 | AUC (5637 cell line): 0.4857 | pEC50 (5637 cell line): 8.65 | pIC50 (5637 cell line): 8.21 | Emax (5637 cell line): 33.01 | AUC (7860 cell line): 0.5049 | pIC50 (168 h, HS688AT, skin, NS): < 5.00 | pIC50 (168 h, HS739T, breast, NS): < 5.00 | pIC50 (168 h, HS839T, skin, NS): < 5.00 | pIC50 (168 h, HS852T, skin, NS): < 5.00 | pIC50 (168 h, HUH28, biliary tract, NS): < 5.00 | pIC50 (168 h, KG1, haematopoietic and lymphoid tissue, acute myeloid leukaemia): < 5.00 | pIC50 (168 h, KURAMOCHI, ovary, undifferentiated carcinoma): < 5.00 | pIC50 (168 h, NMCG1, central nervous system, NS): < 5.00 | pIC50 (168 h, SKMEL31, skin, NS): < 5.00 | pIC50 (168 h, T24, urinary tract, transitional cell carcinoma): < 5.00 | pIC50 (168 h, TE1, oesophagus, squamous cell carcinoma): < 5.00 | pIC50 (168 h, TE8, oesophagus, squamous cell carcinoma): < 5.00 | AUC (A101D cell line): 0.4689 | Emax (A101D cell line): 20.46 | AUC (A204, soft tissue, NS, 168 hours): 0.7136 | AUC (A375 cell line): 0.4405 | Emax (A375 cell line): 19.51 | AUC (A549 cell line): 0.573 | AUC (A2058 cell line): 0.5694 | AUC (A2780 cell line): 0.1811 | AUC (ACHN cell line): 0.453 | AUC (AGS cell line): 0.3536 | Emax (AGS cell line): 14.1129 | AUC (ASPC1 cell line): 0.5812 | AUC (AZ521 cell line): 0.2875 | AUC (BFTC905 cell line): 0.3989 | Emax (BFTC905 cell line): 13.74 | AUC (BICR18 cell line): 0.619 | pEC50 (BICR18 cell line): 6.73 | pIC50 (BICR18 cell line): 6.71 | AUC (BICR22 cell line): 0.6829 | pIC50 (BICR22 cell line): < 5.00 | AUC (BT20, breast, ductal carcinoma, 168 hours): 0.9117 | AUC (BT474, breast, ductal carcinoma, 168 hours): 0.7206 | AUC (BT549 cell line): 0.431 | Emax (BT549 cell line): 20.55 | AUC (BXPC3 cell line): 0.5738 | AUC (C2BBE1, large intestine, adenocarcinoma, 168 hours): 0.8303 | AUC (C32 cell line): 0.2532 | AUC (CAKI1 cell line): 0.5319 | Emax (CAKI1 cell line): 34.03 | AUC (CAL27, upper aerodigestive tract, squamous cell carcinoma, 168 hours): 0.8335 | AUC (CALU1, lung, squamous cell carcinoma, 168 hours): 1.217 | AUC (CALU3, lung, adenocarcinoma, 168 hours): 0.7277 | AUC (CALU6 cell line): 0.4595 | Emax (CALU6 cell line): 18.32 | AUC (CAOV3 cell line): 0.3908 | Emax (CAOV3 cell line): 19.3273 | AUC (CAPAN1 cell line): 0.6391 | AUC (CAPAN2, pancreas, ductal carcinoma, 168 hours): 0.8808 | AUC (CCFSTTG1, central nervous system, astrocytoma, 168 hours): 0.879 | AUC (CFPAC1 cell line): 0.5227 | Emax (CFPAC1 cell line): 29.22 | AUC (CHL1 cell line): 0.3493 | AUC (COLO205 cell line): 0.4833 | Emax (COLO205 cell line): 27.13 | AUC (COLO320HSR cell line): 0.2403 | AUC (COLO679 cell line): 0.502 | AUC (COLO680N cell line): 0.5311 | Emax (COLO680N cell line): 33.76 | AUC (COLO741 cell line): 0.4186 | Emax (COLO741 cell line): 18.78 | AUC (COLO829 cell line): 0.6557 | AUC (CORL279 cell line): 0.3155 | AUC (DAOY, central nervous system, NS, 168 hours): 0.9684 | AUC (DAUDI cell line): 0.5383 | Emax (DAUDI cell line): 25.4109 | AUC (DETROIT562 cell line): 0.5873 | Emax (DETROIT562 cell line): 36.51 | AUC (DLD1 cell line): 0.226 | AUC (DMS53, lung, small cell carcinoma, 168 hours): 0.7426 | AUC (DMS79 cell line): 0.3845 | AUC (DMS153 cell line): 0.6737 | AUC (DMS273 cell line): 0.4815 | AUC (DU145 cell line): 0.4324 | Emax (DU145 cell line): 18.16 | AUC (DV90 cell line): 0.3698 | Emax (DV90 cell line): 11.78 | AUC (ECGI10 cell line): 0.5683 | pEC50 (ECGI10 cell line): ≤ 5.00 | pIC50 (ECGI10 cell line): 7.65 | AUC (FTC133 cell line): 0.4146 | Emax (FTC133 cell line): 22.3385 | AUC (G361, skin, NS, 168 hours): 1.044 | AUC (G401 cell line): 0.2508 | AUC (GAK cell line): 0.6649 | pIC50 (GAK cell line): < 5.00 | AUC (GI1 cell line): 0.6237 | AUC (GP2D cell line): 0.506 | pEC50 (GP2d, GP2D cell line): 7.69 | pIC50 (GP2d, GP2D cell line): 7.58 | AUC (GRANTA519 cell line): 0.4686 | Emax (GRANTA519 cell line): 17.91 | AUC (HCC38, breast, ductal carcinoma, 168 hours): 0.9864 | AUC (HCC70 cell line): 0.4135 | Emax (HCC70 cell line): 13.85 | AUC (HCC78 cell line): 0.5315 | AUC (HCC95 cell line): 0.4072 | AUC (HCC827, lung, adenocarcinoma, 168 hours): 0.8814 | AUC (HCC1143 cell line): 0.6906 | AUC (HCC1187 cell line): 0.465 | Emax (HCC1187 cell line): 34 | AUC (HCC1419, breast, ductal carcinoma, 168 hours): 0.7201 | AUC (HCC1428, breast, NS, 168 hours): 0.7818
